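Briefly, cells in 96-well plates were exposed to five compound concentrations for 48 h, and endpoints were estimated by linear interpolation. TGI is the concentration that stops growth completely.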
Assays:
Experiment in all cases: NCI-60 cell line screen, 48 h
786-0 renal = test system: 786-0 renal
A498 renal = test system: A498 renal
CAKI-1 renal = test system: CAKI-1 renal
DU-145 prostate = test system: DU-145 prostate
EKVX NSCLC = test system: EKVX NSCLC
HOP-62 NSCLC = test system: HOP-62 NSCLC
HS 578T breast = test system: HS 578T breast
K-562 leukemia = test system: K-562 leukemia
LOX IMVI melanoma = test system: LOX IMVI melanoma
M14 melanoma = test system: M14 melanoma
MOLT-4 leukemia = test system: MOLT-4 leukemia
NCI-H460 lung = test system: NCI-H460 lung
NCI-H522 lung = test system: NCI-H522 lung
OVCAR-5 ovarian = test system: OVCAR-5 ovarian
SK-MEL-5 melanoma = test system: SK-MEL-5 melanoma
SW-620 colon = test system: SW-620 colon
UACC-62 melanoma = test system: UACC-62 melanoma
HOP-92 NSCLC = test system: HOP-92 NSCLC
HT29 colon = test system: HT29 colon
MDA-MB-435 = test system: MDA-MB-435

Compound	TGI (786-0 renal) [µM]	TGI (A498 renal) [µM]	TGI (CAKI-1 renal) [µM]	TGI (DU-145 prostate) [µM]	TGI (EKVX NSCLC) [µM]	TGI (HOP-62 NSCLC) [µM]	TGI (HS 578T breast) [µM]	TGI (K-562 leukemia) [µM]	TGI (LOX IMVI melanoma) [µM]	TGI (M14 melanoma) [µM]	TGI (MOLT-4 leukemia) [µM]	TGI (NCI-H460 lung) [µM]	TGI (NCI-H522 lung) [µM]	TGI (OVCAR-5 ovarian) [µM]	TGI (SK-MEL-5 melanoma) [µM]	TGI (SW-620 colon) [µM]	TGI (UACC-62 melanoma) [µM]	TGI (HOP-92 NSCLC) [µM]	TGI (HT29 colon) [µM]	TGI (MDA-MB-435) [µM]
COc1cc([C@@H]2c3cc4c(cc3[C@@H](Nc3ccc(Cl)cc3C(=O)c3ccccc3)[C@H]3COC(=O)[C@H]23)OCO4)cc(OC)c1OC	> 100	5.27	> 100	> 100	> 100	> 100	0.926	> 100	> 100	> 100	> 100	> 100	0.918	> 100	16	> 100	> 100	–	–	–
CN1CCc2ccccc2C(C(=O)c2ccc3c(c2)OCO3)C1=O (configuration not stated)	> 100	> 100	> 100	–	–	> 100	–	> 100	> 100	> 100	> 100	> 100	> 100	–	> 100	> 100	> 100	> 100	> 100	–
CCCNCCCCC(NC(C)=O)C(=O)NCc1ccccc1 (configuration not stated)	> 100	> 100	> 100	–	> 100	> 100	–	> 100	> 100	> 100	> 100	> 100	> 100	> 100	> 100	> 100	> 100	> 100	> 100	–
COc1cc(C2c3cc4c(cc3C(=O)C3CCC(=O)N32)OCO4)cc(OC)c1O (configuration not stated)	> 50	> 50	–	> 50	> 50	> 50	–	> 50	–	> 50	> 50	> 50	–	> 50	–	> 50	> 50	> 50	> 50	> 50
CC(Cn1c2c(c3cc(O)ccc31)CCc1ccc(O)cc1-2)N(C)C (configuration not stated)	35.9	53.7	52.8	–	52.9	31	46	> 100	81	28.8	> 100	31.8	–	37.2	–	55	35.9	–	35.8	41
Cc1sc2nc3n(c(=O)c2c1C)N=CN(c1ccc(Cl)cc1)C3	> 100	> 100	> 100	> 100	> 100	> 100	–	> 100	> 100	> 100	> 100	> 100	> 100	> 100	> 100	> 100	> 100	> 100	> 100	> 100
O=[N+]([O-])c1cccc(Nc2nc(Cl)nc(Cl)n2)c1	> 100	–	> 100	–	> 100	> 100	–	> 100	> 100	> 100	> 100	> 100	> 100	> 100	> 100	> 100	> 100	–	> 100	–
O=C(NCCN1CCCCC1)c1cccc(I)c1	> 100	> 100	> 100	–	> 100	–	> 100	> 100	> 100	> 100	> 100	> 100	–	> 100	> 100	> 100	> 100	> 100	> 100	–
COC(=O)/C=C(\C)CCC1SC1(C)C (configuration not stated)	> 100	> 100	> 100	–	> 100	> 100	–	> 100	> 100	> 100	> 100	> 100	> 100	> 100	> 100	> 100	> 100	–	> 100	–
Cc1ccc(-c2cc(-c3ccccc3)c(C#N)c(=O)[nH]2)cc1	> 100	> 100	–	–	> 100	> 100	–	> 100	> 100	> 100	> 100	> 100	> 100	> 100	> 100	> 100	> 100	> 100	> 100	–
CC(=O)[C@H]1[C@H](O)C[C@@]2(C)[C@@H]3CCc4cc(O)c(OC5OC(CO)C(O)C(O)C5O)cc4C3(C)C(=O)C[C@]12C (some centres not stated)	> 100	> 100	> 100	> 100	> 100	> 100	–	> 100	> 100	> 100	> 100	> 100	> 100	> 100	> 100	> 100	> 100	> 100	> 100	> 100
COc1ccc(C2Cc3cc(OC)c(OC)c(OC)c3C2)cc1 (configuration not stated)	> 100	> 100	> 100	–	> 100	> 100	–	> 100	> 100	> 100	61.6	> 100	–	> 100	31.3	> 100	> 100	–	79.6	–
COc1cc([C@@H]2c3cc4c(cc3[C@@H](NCc3cccc(C#N)c3)C3COC(=O)[C@@H]32)OCO4)cc(OC)c1O (some centres not stated)	2.62	4.27	20.8	–	6.58	1.79	–	25.4	8.36	6.22	1.43	2.09	3.56	14.6	13	11.1	2.93	9.83	5.51	–
CC1=CCC(C(C)(C)NC(=O)c2ccccc2)C/C1=N/O (configuration not stated)	> 100	–	–	> 100	> 100	> 100	–	> 100	> 100	> 100	> 100	> 100	> 100	> 100	> 100	> 100	> 100	> 100	> 100	> 100
C=C1C2=C(CCCC2)C(=O)OC12CCCCC2	> 100	–	–	–	> 100	> 100	–	> 100	> 100	> 100	> 100	> 100	> 100	> 100	> 100	> 100	> 100	77.9	> 100	–
O=C(Nc1ccccc1)OCCN=C1c2ccccc2CCc2ccccc21	> 100	–	88	91.3	> 100	49.4	51.5	60.9	49.4	45.1	31.1	44.4	–	63.5	27.3	> 100	26.7	–	37	43.6
C[C@@H]1CC[C@@H]2[C@@H](C1)O[C@@H]([C@@H](C)OCc1ccccc1)SC2(C)C	34	32	29	> 100	67.4	32.3	–	36	41.9	37.7	32.3	49.1	31.1	32.9	31.3	34	43.2	–	36.7	35.8
CSc1nc(=O)cnn1C	> 100	–	> 100	> 100	> 100	> 100	> 100	> 100	–	> 100	> 100	> 100	> 100	> 100	> 100	> 100	> 100	–	> 100	> 100
CCCc1cc(OC(=O)c2c(O)cc(OC)cc2CCC)cc(O)c1C(=O)O	> 100	98.8	–	–	86.8	35.6	–	> 100	61.7	73.7	84.2	76.6	43.9	> 100	–	> 100	78.1	39	> 100	–
CCCCCCCCC(O)c1ccc(/C=C\C(O)CCCC(=O)O)s1 (configuration not stated)	> 100	–	–	–	> 100	–	–	> 100	> 100	> 100	> 100	> 100	> 100	> 100	> 100	> 100	> 100	> 100	> 100	–
COc1ccccc1N/C(SCc1ccccc1)=C(/C(Cl)=C(Cl)Cl)[N+](=O)[O-]	97.8	> 100	74.9	> 100	> 100	> 100	–	57.9	–	> 100	> 100	> 100	–	> 100	–	31.7	> 100	–	42.4	42.5
C1CCCN(NC2=NCCO2)CC1	> 100	> 100	> 100	–	> 100	> 100	> 100	> 100	> 100	> 100	> 100	> 100	> 100	> 100	> 100	> 100	> 100	–	> 100	> 100
COc1ccc2[nH]c3c(c2c1)[C@H]1CCC(C(C)(C)C)C[C@H]1[C@H]1C(=O)N(c2ccccc2)C(=O)[C@@H]31 (some centres not stated)	15.6	44.1	> 36.6	–	> 100	38.3	–	> 91.5	> 100	30.6	> 71.2	> 53.6	> 49.5	> 100	> 100	> 100	> 100	21	> 100	–
CO/C(=N\N=C\c1ccc(Cl)c(Cl)c1)c1ccncc1	> 10	–	> 10	–	–	> 10	–	> 10	> 10	> 10	> 10	> 10	–	> 10	> 10	> 10	–	> 10	–	–
COc1ccc(-c2nc(Nc3ccccc3)sc2Cc2sc(Nc3ccccc3)nc2-c2ccc(OC)cc2)cc1	> 100	> 100	> 100	> 100	> 100	> 100	–	> 100	> 100	–	> 100	> 100	–	> 100	> 100	> 100	> 100	–	> 100	> 100
CCCCOC/N=C(/N)NC#N	> 100	> 100	> 100	–	> 100	> 100	–	> 100	90.1	> 100	> 100	> 100	> 100	> 100	> 100	34.3	> 100	> 100	> 100	–
COc1ccc(-c2nc(-c3cnccn3)n(C3OC(CO)C(O)C3O)n2)cc1 (configuration not stated)	> 10	–	–	–	> 10	–	–	> 10	> 10	> 10	> 10	> 10	> 10	> 10	–	> 10	> 10	> 10	> 10	> 10
C1CSCC2(COC2)CSCCSCC2(COC2)CS1	> 100	–	–	> 100	> 100	> 100	–	> 100	> 100	> 100	> 100	> 100	> 100	> 100	> 100	> 100	> 100	> 100	> 100	> 100
